Reference: patent US5770759A, “Prostaglandins of the F series” (priority 1987, dated 1998)

Experiments:
[1] = test system: blood pressure; experiment: Change in blood pressure in anesthetized rats (Experiment 1); assay type: in vivo, Male Wister rat; conditions: for Change in Blood Pressure (%): 1 mg/kg into tail vein, anesthetized rat, average of 5 data per group; for Blood Pressure: Table 2, class symbols
Procedure: Male Wister rat (8-week old) was anesthetized by intraperitoneally administering urethane (1.25 g/kg). Polyethylene tube was inserted into femoral artery and connected with a pressure transducer to measure blood pressure.
The test drugs were dissolved in ethanol, diluted with Ringer's solution before use and a dose of 1 mg/kg was administered into tale vein. The maximum concentration of ethanol was 2%. As reference, ethanol-Ringer's solution without containing test drugs was used and the effect was checked in each experiment without failing. The rate of change in blood pressure (%) was determined by average of 5 data per group.

[2] = test system: mouse; experiment: Acute toxicity upon oral administration (Experiment 6); assay type: in vivo, Male Slc-ddY mouse; conditions: mouse (5 weeks old)
Description: Using Male Slc-ddY mouse (5 weeks old), acute toxicity upon oral administration (LD50) was examined.

[3] = test system: pulse; design: species or system Male Wister rat; conditions: rat, in vivo
Procedure: Male Wister rat (8-week old) was anesthetized by intraperitoneally administering urethane (1.25 g/kg). A tachometer was operated by R wave of electrocardiogram of exterminal derivation. The effect of the tested 15-keto-PGEs on pulse is evaluated by the value calucurated from the following formula: [formula]

Compound | Change in Blood Pressure (%) [1] | other results
13,14-dihydro-15-keto-PGF1 α ethyl ester [Test Drug 24] | +27% | 
CCCCCC(=O)CC[C@@H]1[C@@H](C/C=C\CCCC(=O)OCC)[C@@H](O)C[C@H]1O [Test Drug 2, 13,14-dihydro-15-keto-PGF2 α ethyl ester] | +17% | 
13,14-dihydro-15-keto-17S-methyl-PGF2 α ethyl ester [Test Drug 13] | +18% | 
13,14-dihydro-15-keto-20-ethyl-11R-dehydroxy-11R-methyl-PGF2 α methyl ester [Example 15] | +7% | 
13,14-dihydro-15-keto-20-ethyl-PGF2 α isopropyl ester [Test Drug 18] | +16% | Blood Pressure ([1]; rat): .uparw. (increase more than 10%); LD50 (oral) [2]: > 2000 mg/kg
13,14-dihydro-15-keto-20-ethyl-16R,S-fluoro-PGF2 α methyl ester [Test Drug 11] | +8% | 
CCCCCCCCC(=O)CC[C@@H]1[C@@H](C/C=C\CCCC(=O)OC)[C@@H](O)C[C@H]1O [Test Drug 21, 13,14-dihydro-15-keto-20-n-propyl-PGF2 α methyl ester] | +16% | 
13,14-dihydro-15-keto-16,16-dimethyl-PGF2 α ethyl ester [Test Drug 4] | +7% | 
13,14-dihydro-15-keto-9β,11α-PGF2 methyl ester [Test Drug 3] | +5% | 
13,14-dihydro-15-keto-20-methoxy-PGF2 α methyl ester [Example 9] | +41% | 
13,14-dihydro-15-keto-20-ethyl-PGF1 α methyl ester [Test Drug 25] | +32% | 
13,14-dihydro-15-keto-20-ethyl-PGF2 α methyl ester [Test Drug 16] | +26% | Blood Pressure ([1]; rat): .uparw. (increase more than 10%); LD50 (oral) [2]: > 2000 mg/kg
13,14-dihydro-15-keto-16-desbutyl-16-m-trifluoromethylphenoxy-PGF2 α methyl ester [Test Drug 23] | +5% | 
CCCCC[C@H](O)/C=C/[C@@H]1[C@@H](C/C=C\CCCC(=O)O)[C@@H](O)C[C@H]1O [PGF2 α, (Z)-7-[(1R,2R,3R,5S)-3,5-dihydroxy-2-{(E)-(3S)-3-hydroxy-1-octenyl}-cyclopentyl]-5-heptenoic acid, reference compound] |  | Blood Pressure ([1]; rat): .dwnarw. → .uparw.; effect on blood pressure (in words) ([1]; rat): ephemeral decrease in pulse as well as blood pressure; Pulse [3]: .dwnarw. → .uparw.; effect on pulse (in words) [3]: ephemeral decrease in pulse
13,14-dihydro-15-keto-20-ethyl-PGF2 α n-butyl ester [Test Drug 19] | +8% | 
13,14-dihydro-15-keto-16R,S-fluoro-11R-dehydroxy-11R-methyl-PGF2 α methyl ester [Test Drug 8] | +44% | 
13,14-dihydro-15-keto-20-ethyl-PGF2 α ethyl ester [Test Drug 17] | +20% | 
13,14-dihydro-15-keto-20-ethyl-16R,S-fluoro-PGF2 α [Test Drug 10] | +35% | 
13,14-dihydro-15-keto-PGF2 α methyl ester [Test Drug 1] | +14% | Blood Pressure ([1]; rat): .uparw. (increase more than 10%)
13,14-dihydro-15-keto-16R,S-fluoro-PGF2 α methyl ester [Test Drug 6] | +18% | 
13,14-dihydro-15-keto-20-ethyl-16R,S-fluoro-11R-dehydroxy-11R-methyl-PGF2 α methyl ester [Test Drug 12] | +13% | 
13,14-dihydro-15-keto-20-methyl-PGF2 α methyl ester [Test Drug 14] | +10% | 
13,14-dihydro-15-keto-20-ethyl-PGF2 α [Test Drug 15] | +24% | 
CCCCCC(=O)CC[C@@H]1[C@@H](C/C=C\CCCC(=O)OC)[C@@H](O)C[C@H]1O [compound 1] | +12% | 
13,14-dihydro-15-keto-20-n-butyl-PGF2 α methyl ester [Test Drug 22] | +14% | 
13,14-dihydro-15-keto-16R,S-fluoro-PGF2 α [Test Drug 5] | +7% | 
